Patent publication US7205298B2, “Substituted triazine kinase inhibitors” (Janssen Pharmaceutica N.V., priority 2002, dated 2007)
Several values for one entry are separate records, joined by “and”; a condition that tells them apart may be missing. Identical values can stand only once.

Key:
CDK1:Cyclin-B = target: T1, CDK1:Cyclin-B (Homo sapiens, UniProt P06493); test: CDK1 Screening Assay; type: biochemical
T1 construct: purchased New England Biolabs 6020; host or cells: insect cells
Protocol: A kinase reaction mixture was prepared containing 50 mM Tris-HCl pH=8, 10 mM MgCl2, 0.1 mM Na3PO4, 1 mM DTT, 10 μM ATP, 0.025 μM biotinylated histone-H1 peptide substrate (also referred to herein as a CDK-1 peptide substrate, see substrate table) and 0.2 μCuries per well ^33P-γ-ATP (2000–3000 Ci/mmol). 70 μL of the kinase reaction mixture was dispensed into the well of a streptavidin coated FlashPlate™ (Cat. # SMP 103, NEN, Boston, Mass.). Then 1 μL of test compound stock in 100% DMSO was added to the wells resulting in a final concentration of 1% DMSO in the reaction with a 100 μl final reaction volume. Next, CDK1:Cyclin-B protein (New England Biolads, infra) was diluted in 50 mM Tris-HCl pH=8.0, 0.1% BSA at a concentration of 1 ng per μL and 30 μl (30 ng enzyme per test well) was added to each well to initiate the reaction. The reaction was incubated for one hour at 30° C. At the end of the 1-hour incubation, the reaction was terminated by aspirating the reaction mixture from the plate and washing the wells twice with PBS containing 100 mM EDTA. The histone-H1 biotinylated peptide substrate became immobilized on the Flashplate™ (Perkin Elmer, NEN Boston, Mass.) and the incorporation of ^33P-γ-ATP was measured by reading the plate on a scintillation counter. Inhibition of the enzymatic activity of CDK1 was measured by observing a reduced amount of ^33P-γ-ATP incorporated into the immobilized peptide.
(§1) Assays to test compound inhibition of other kinases were preformed using methods that measure the amount of phosphorylation of a biotinylated peptide substrate. Biotinylated peptide substrates were selected from the literature as appropriate for the enzyme being evaluated. The general procedure used to assay for kinase activity is as follows: a kinase reaction mix was prepared in 50 mM Tris-HCl pH=8, 10 mM MgCl2, 0.1 mM Na3VO4, 1 mM DTT, 10 μM ATP, 0.25–1 μM biotinylated peptide substrate, 0.2–0.8 μCuries per well ^33P-γ-ATP (2000–3000 Ci/mmol). Assay conditions vary slightly for each protein kinase, for example, insulin receptor kinase requires 10 mM MnCl2 for activity and Calmodulin-dependent protein kinase requires calmodulin and 2 mM CaCl2. The reaction mixture was dispensed into the wells of a streptavidin coated Flashplate and 1 μL test compound in 100% DMSO was added to a 100 μL reaction volume resulting in a final concentration of 1% DMSO in the reaction. Enzyme was diluted in 50 mM Tris-HCl pH=8.0, 0.1% BSA and added to each well. The reaction was incubated for one hour at 30° C. in the presence of a test compound. After one hour the reaction mix was aspirated from the plate and the plate was washed with PBS containing 100 mM EDTA. The plate was read on a scintillation counter to determine ^33P-γ-ATP incorporated into the immobilized peptide substrate. Test compounds were assayed in duplicate at 8 concentrations (100 μM, 10 μM, 1 μM, 100 nM, 10 nM, 1 nM, 100 pM, 10 pM). A maximum and minimum signal for the assay was determined on each plate. […] Known inhibitor compounds appropriate for the kinase being assayed were also included on each plate.
(§2) The form of VEGF-R (vascular endothelial growth factor receptor-2) used was a fusion protein containing a polyhistidine tag at the N-terminus followed by amino acids 786–1343 of the rat VEGF-R2 kinase domain (GenBank Accession #U93306). The form of CDK1 (cyclin dependent kinase 1) used was isolated from insect cells expressing both the human CDK1 catalytic subunit and its positive regulatory subunit cyclin B (CDK1:cyclin B protein, New England Biolabs, Beverly, Mass., Cat. #6020). The form of CDK4 (cyclin dependent kinase 4) used contains amino acids 769 to 921 of the mouse […] protein found in the GST-retinoblastoma protein construct (Santa Cruz Biotechnology, Santa Cruz, Calif.; Cat. #SC-4112). The form of EGF-R1 (epidermal growth factor receptor 1) used was purified from human A431 cell membranes (Sigma, St. Louis, Mo., Cat.# E3641). […]

[1] = target: T2, VEGF-R (rat VEGF-R2 kinase domain) (Rattus norvegicus, UniProt O08775); test: VEGF-R Screening Assay; type: biochemical
T2 construct: 6xHis (polyhistidine) (N)
T2 sequence (O08775 786-1343): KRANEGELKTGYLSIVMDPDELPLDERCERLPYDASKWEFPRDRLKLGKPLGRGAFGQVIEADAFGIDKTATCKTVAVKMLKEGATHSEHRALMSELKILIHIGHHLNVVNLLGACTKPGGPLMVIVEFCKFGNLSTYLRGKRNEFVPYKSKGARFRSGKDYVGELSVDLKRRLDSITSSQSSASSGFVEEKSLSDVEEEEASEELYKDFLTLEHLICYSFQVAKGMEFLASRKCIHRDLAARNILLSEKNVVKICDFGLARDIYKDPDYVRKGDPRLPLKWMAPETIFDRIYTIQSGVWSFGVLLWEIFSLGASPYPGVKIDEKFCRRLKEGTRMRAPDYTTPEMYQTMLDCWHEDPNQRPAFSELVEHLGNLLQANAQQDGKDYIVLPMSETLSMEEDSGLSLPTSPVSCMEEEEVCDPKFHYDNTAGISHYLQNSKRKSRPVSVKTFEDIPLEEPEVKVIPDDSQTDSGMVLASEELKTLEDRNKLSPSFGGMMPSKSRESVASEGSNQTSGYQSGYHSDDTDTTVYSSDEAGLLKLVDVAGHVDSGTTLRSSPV
Protocol: A kinase reaction mixture was prepared containing 50 mM Tris-HCl pH=8, 10 mM MgCl2, 0.1 mM Na3PO4, 1 mM DTT, 10 μM ATP, 0.025 μM biotinylated peptide substrate (also referred to herein as PLC-1 biotinylated peptide substrate and PDGF receptor substrate, sequence provided in the peptide substrate table) and 0.8 μCuries per well ^33P-γ-ATP (2000–3000 Ci/mmol). 70 μL of the kinase reaction mixture was dispensed into the well of a streptavidin coated FlashPlate™ (Cat. # SMP103, NEN, Boston, Mass.). Then 1 μL of test compound stock in 100% DMSO was added to the wells resulting in a final concentration of 1% DMSO in the reaction with a 100 μL final reaction volume. Next, soluble rat VEGF tyrosine kinase containing an N-terminal 6XHIS tag was diluted in 50 mM Tris-HCl pH=8.0, 0.1% BSA at a concentration of 5 ng per μL and 30 μL (150 ng enzyme per test well) was added to each well to initiate the reaction. The reaction was incubated for one hour at 30° C. At the end of the 1-hour incubation, the reaction was terminated by aspirating the reaction mixture from the plate and washing the wells twice with PBS containing 100 mM EDTA. The PLC1 biotinylated peptide substrate became immobilized on the Flashplate™ and the incorporation of ^33P-γ-ATP was measured by reading the plate on a scintillation counter. Inhibition of the enzymatic activity of the VEGF-R was measured by observing a reduced amount of ^33P-γ-ATP incorporated into the immobilized peptide.
as §1, §2

T1 sequence (P06493 whole entry): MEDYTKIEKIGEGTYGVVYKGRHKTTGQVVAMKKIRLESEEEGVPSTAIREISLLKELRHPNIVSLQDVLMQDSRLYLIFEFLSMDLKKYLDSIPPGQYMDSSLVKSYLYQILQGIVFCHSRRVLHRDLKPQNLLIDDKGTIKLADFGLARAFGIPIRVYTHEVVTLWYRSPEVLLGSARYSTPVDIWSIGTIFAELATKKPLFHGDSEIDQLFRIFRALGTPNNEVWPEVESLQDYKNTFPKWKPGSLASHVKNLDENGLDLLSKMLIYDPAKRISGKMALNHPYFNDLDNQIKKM
T1 sequence (P14635 whole entry partner): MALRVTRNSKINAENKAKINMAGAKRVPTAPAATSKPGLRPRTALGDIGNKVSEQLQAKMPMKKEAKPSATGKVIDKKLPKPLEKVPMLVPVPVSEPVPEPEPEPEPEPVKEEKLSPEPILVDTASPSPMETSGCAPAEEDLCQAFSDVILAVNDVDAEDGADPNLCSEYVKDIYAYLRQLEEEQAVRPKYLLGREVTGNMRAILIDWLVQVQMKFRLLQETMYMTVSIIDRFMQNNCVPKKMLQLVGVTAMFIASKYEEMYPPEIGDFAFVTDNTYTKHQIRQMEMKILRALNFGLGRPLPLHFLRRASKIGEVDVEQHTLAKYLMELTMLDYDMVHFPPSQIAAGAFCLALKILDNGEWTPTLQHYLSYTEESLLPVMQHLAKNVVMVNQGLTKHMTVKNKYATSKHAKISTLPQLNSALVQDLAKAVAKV

OCCCNc1cc(-c2ncnc(Nc3cccc(Cl)c3)n2)ccn1 [Compound 2, 3-((4-(4-((3-chlorophenyl)amino)-1,3,5-triazin-2-yl)-2-pyridinyl)amino)-1-propanol]
IC50 (CDK1:Cyclin-B): 16 nM | IC50 [1]: 2560 nM and 2570 nM

OCCCNc1cncc(-c2ncnc(Nc3cccc(Cl)c3)n2)c1 [Compound 1, 3-((5-(4-((3-chlorophenyl)amino)-1,3,5-triazin-2-yl)-3-pyridinyl)amino)-1-propanol]
IC50 (CDK1:Cyclin-B): 39 nM | IC50 [1]: 2560 nM
